Experimental findings from patent US8476197B2, “Aminopropenoates as fungicides” (priority 2009, dated 2013) are described below.

Marks after values point to notes of the source that are not given here.

Broadly, the Log P is the decadic logarithm of the partition coefficient of the neutral form, usually between octanol and water. High values mean a more lipophilic compound, low ones a more hydrophilic compound.

The conditions of one data set: pH 2.7.
Regarding `CCOC(=O)C(C#N)=C(NCc1ncc(C)s1)c1sccc1C(F)(F)F` [Compound 217], the log partition coefficient (Log P) is 3.19^[a].

In the case of `CCOC(=O)C(C#N)=C(NC(C)c1sc(C)nc1C)c1sc(C)nc1C(F)(F)F` (stereo not shown) [Compound 218], the “Log P” value is 3.13^[a].

As to `CCOC(=O)C(C#N)=C(NCc1ncc(C)s1)c1sc(C)nc1C(F)(F)F` [Compound 219], the “Log P” value is 3^[a].

With `CCOC(=O)C(C#N)=C(NCc1ncc(C)s1)c1sccc1Br` [Compound 220], the log partition coefficient (Log P) is 3.04^[a].

`CCOC(=O)C(C#N)=C(NCc1nccs1)c1nc(Cl)ccc1Cl` [Compound 226]: the “Log P” value was 2.6^[a].

On to `CCOC(=O)C(C#N)=C(NCc1nccs1)c1cnc(Cl)cc1Cl` [Compound 227], for which the “Log P” value was 2.68^[a].

Turning to `CCOC(=O)C(C#N)=C(NCc1nccs1)c1ncc(Cl)cc1Cl` [Compound 228], the “Log P” value was 2.7^[a].

As to `CCOC(=O)C(C#N)=C(NCc1nccs1)c1c(C(F)F)nn(C)c1Cl` [Compound 236], the “Log P” value is 2.4^[a].

As for `CCOC(=O)C(C#N)=C(NCc1nc(C)cs1)c1ccsc1Br` [Compound 246], the “Log P” value is 2.94^[a].

Regarding `CCOC(=O)C(C#N)=C(NCc1ncc(C)s1)c1ccsc1Br` [Compound 247], the “Log P” value is 3^[a].

`CCOC(=O)C(C#N)=C(NCc1nc2ccccc2s1)c1ccsc1Br` [Compound 248]: the “Log P” value was 3.55^[a].

With `CCOC(=O)C(C#N)=C(NCc1nc(C(F)(F)F)cs1)c1ccsc1Br` [Compound 249], the “Log P” value is 3.42^[a].

Turning to `CCOC(=O)C(C#N)=C(NCc1ccc(F)cn1)c1ccsc1Br` [Compound 251], the log partition coefficient (Log P) was 3.04^[a].

For `CCOC(=O)C(C#N)=C(NCc1nccs1)c1ccncc1Cl` [Compound 259], the log partition coefficient (Log P) is 2.11^[a].

As to `CCOC(=O)C(C#N)=C(NCc1nccs1)c1cnccc1C(F)(F)F` [Compound 272], the “Log P” value was 2.4^[a].

As to `CCOC(=O)C(C#N)=C(NC1(c2ccccn2)CC1)c1cccnc1Cl` [Compound 284], the “Log P” value was 2.56^[a].

Consider `CCOC(=O)C(C#N)=C(Nc1cccnc1O)c1cccnc1Cl` [Compound 286], for which the “Log P” value was 1.9^[a].

In the case of `CCOC(=O)C(C#N)=C(Nc1ccncc1C)c1cccnc1Cl` [Compound 293], the “Log P” value was 1.45^[a].

Regarding `C=CCOC(=O)C(C#N)=C(NCc1nccs1)c1cn(C)nc1C(F)F` [Compound 306], the “Log P” value is 2.25^[a].

Regarding `CCOC(=O)C(C#N)=C(NC(C)c1nccs1)c1c(C(F)(F)F)nn(C)c1Cl` (stereo not shown) [Compound 311], the “Log P” value was 3.2^[a].

Regarding `CCOC(=O)C(C#N)=C(NC(C)c1nccs1)c1cn(C)nc1C(C)(F)F` (stereo not shown) [Compound 312], the log partition coefficient (Log P) was 2.62^[a].

Take `CCOC(=O)C(C#N)=C(NC(C)c1ccccn1)c1c(C(F)(F)F)nn(C)c1Cl` (stereo not shown) [Compound 314]: the lipophilicity (Log P) was 3.24^[a].

As for `CCOC(=O)C(C#N)=C(NC(C)c1ccccn1)c1cn(C)nc1C(C)(F)F` (stereo not shown) [Compound 315], the lipophilicity (Log P) was 2.57^[a].

Consider `CCOC(=O)C(C#N)=C(NC(C)c1ccccn1)c1c(C(F)F)nn(C)c1F` (stereo not shown) [Compound 316], for which the “Log P” value was 2.73^[a].

As to `C#CCNC(=O)C(C#N)=C(NC(C)c1nccs1)c1cccnc1Cl` (stereo not shown) [Compound 317], the log partition coefficient (Log P) was 2.03^[a].

Consider `CCOC(=O)C(C#N)=C(NC(C)c1nccs1)c1ccncc1F` (stereo not shown) [Compound 318], for which the log partition coefficient (Log P) was 2.41^[a].

Turning to `CCOC(=O)C(C#N)=C(NCc1csc(-c2ccccc2)n1)c1cccnc1Cl` [Compound 319], the “Log P” value is 3.63^[a].

Take `CCOC(=O)C(C#N)=C(NC(C)Cc1ccncc1)c1cccnc1Cl` (stereo not shown) [Compound 320]: the log partition coefficient (Log P) is 1.64^[a].

`CCOC(=O)C(C#N)=C(NC(C)c1cnn(C)c1)c1cccnc1Cl` (stereo not shown) [Compound 321]: the “Log P” value was 2.2^[a].

Staying with this data set, now noted: pH 7.5.
With `CCOC(=O)C(C#N)=C(NC(C)c1nc(C(=O)OCC)cs1)c1cccnc1Cl` (stereo not shown) [Compound 241], the “Log P” value is listed as 2.7.

For `CCOC(=O)C(C#N)=C(NC(C)c1nc(C(=O)O)cs1)c1cccnc1Cl` (stereo not shown) [Compound 244], the log partition coefficient (Log P) stood at 1.1.
